Legend:
SS cells = assay: In vitro RBC anti-sickling (morphological) study with SS cells; assay type: cell-based, human; conditions: SS cells, 1 h air then 4% O2, 37° C., 5 h; for inhibition at 5000 µM / inhibition at 500 µM / inhibition at 1000 µM / inhibition at 2000 µM: Homo sapiens, read-out: Inhibition of sickled cells; for inhibition at 5000 µM: 5.0 mM; for inhibition at 1000 µM: 1.0 mM; for inhibition at 2000 µM: 2.0 mM
Method: In vitro RBC morphological (anti-sickling) analysis was conducted at the Children's Hospital of Philadelphia (by Drs. Toshio Asakura and Osheiza Abdulmalik). The anti-sickling effects of 5HMF, TD-7 HCl, TD-7, TD-1, and TD-7-1 were studied by incubating suspensions of SS cells in the absence or presence of three different concentrations of the effectors in the presence of air for 1 h at 37° C. followed by incubation under 4% oxygen at 37° C. for 5 h. All samples were pre-incubated for 1 h with various compounds and then incubated under 4% O2 for 5 h. […] Table 5 represents the concentrations of the effectors along with the % inhibition of sickling cells. The hemolysates that had been prepared from SS cells after incubation with test compounds were also subjected to cation-exchange HPLC as previously reported (Abdulmalik et al., 2005).

Hb [1] = biological target: T1, Hb (Homo sapiens, UniProt P68871+P69905); assay: Oxygen equilibrium curve (OEC) study with normal whole blood (AA); assay type: cell-based; conditions: for ΔP50: versus DMSO control
T1 construct: normal whole blood (AA); from tissue; host or cells: normal whole blood (AA), red blood cells
Method: (§1) Studies were performed on compounds TD-7, TD-7-1, TD-8, TD-8-1, TD-9 and TD-9-1 using 100 mM stock solution in DMSO and normal whole blood (AA). TD-7, TD-8 and TD-9 are compounds with a hydroxymethyl group on the pyridine ring, while TD-7-1, TD-8-1 and TD-9-1 are the respective nitrate ester derivatives. The whole blood samples had hematocrit values ranging from 29-36%, and cell-free purified Hb of 10-12 g/dL in the absence or presence of effectors solubilized in DMSO at 2 mM or in some cases with varying compound concentration. The blood samples were incubated in an IL 237 tonometer (Instrumentation Laboratories, Inc., Lexington, Mass.) for about 5-7 min at 37° C. against a gas mixture containing O2 concentrations of 0.804%, 2.935% and 5.528% and allowed to equilibrate at O2 tensions of 6, 20 and 40 mmHg. After equilibration, the sample was removed via syringe and aspirated into a ABL 700 series table top automated blood gas analyzer (Radiometer America, Inc., Westlake, Ohio) to determine total hemoglobin (tHb), hematocrit (Hct), pH, pCO2, partial pressure of oxygen (pO2), and the Hb oxygen saturation values (sO2). Similar procedures were followed for concentration and time dependence studies. The measured values of pO2 and sO2 at each oxygen saturation level were then subjected to a non-linear regression analysis using the program Scientist (Micromath, Salt Lake City, Utah) with the following equation: […]
This equation was used to calculate P50 and Hill coefficient (N) values. Corresponding control experiments without the test compound (P50control) but containing DMSO were also performed.

cell-free Hb = biological target: T2, cell-free Hb (Homo sapiens, UniProt P68871+P69905); assay: OEC study with normal cell-free Hb; assay type: biochemical; conditions: cell-free Hb 12 mg/mL, 2 mM compound; for N (Hill coefficient) / P50: n = 1; for ΔP50: versus control P50 12.5
T2 construct: Hemoglobin was prepared from centrifuging human blood; from tissue; host or cells: human blood (red cells lysed, Hb purified on DEAE sephacel)
Method: as §1
Hemoglobin was prepared from centrifuging human blood at 2500 rpms for 20 min at 4° C. The supernatant solution, debris and plasma were discarded from the centrifuge bottles, leaving behind RBCs. The RBCs were washed thrice with an excess volume of 0.9% NaCl, and once with 1.0% NaCl, each time centrifuging and discarding the supernatant solution. The RBCs were pooled together into a chilled flask and hemolyzed to free Hb by adding 1-2 volume excess of 50 mM Tris buffer, pH 8.6 (containing EDTA). The mixture was allowed to stand in ice for 30 min with occasional stirring. The Hb solution was centrifuged at 10,000 rpm for 2 h at 4° C. The supernatant Hb solution was pooled into a chilled flask and NaCl (40-60 mg/mL Hb solution) was slowly added with stirring. Hemoglobin solution was centrifuged at 10,000 rpm for 2 h at 4° C. to remove any cell stroma remnants. The clear supernatant Hb solution was pooled into a chilled flask and the “syrupy” pellet was discarded. Hemoglobin solution was dialyzed against 50 mM Tris buffer, pH 8.6 (containing EDTA) at 4° C. to remove NaCl and/or other low molecular weight impurities. Strips of standard cellulose dialysis tubing that had been washed 3-4 times and boiled for 10 min in deionized water were used for dialysis. The dialyzed Hb was further purified by ion-exchange chromatography using DEAE sephacel to exclude 2,3-DPG. The resin was equilibrated with 50 mM Tris buffer, pH 8.6, and the Hb solution was run through the column with 50 mM Tris buffer, pH 8.6 (containing EDTA). The pooled fractions were concentrated with an Amicon stirred cell (Amicon, Model 402), to a final HbA concentration of about 80-120 mg/mL. Concentrated HbA was stored at −80° C.
As a result of the low left-shifting activities of TD-8 and TD-9, as well as the nitrate ester derivatives, we further evaluated the activity of the compounds TD-1, TD-7, TD-7-1, TD-8, and TD-9 using cell-free Hb (devoid of any proteins, enzymes, plasma and cell membranes) to determine whether plasma protein or RBC membrane could have any effect on compound biological activity. Previous studies have shown limited effect of plasma protein and RBC membrane on SHMF activity. The same tonometry procedure used on whole blood was used with the cell-free hemoglobin using 2 mM compound and 12 mg/mL of Hb.

Hb [2] = biological target: T1, Hb; assay: Time-dependent OEC study with whole blood; assay type: cell-based; conditions: 0.5 mM; for P50: whole blood (Hct~34%); for N (Hill coefficient) / ΔP50: whole blood
Method: as §1
All samples were pre-incubated with whole blood (Hct˜34%) with the specified compounds 0.5 mM concentrations for the specified time. The control experiment without test compound (P50 (control)) contains the same concentration of DMSO used to solubilize the test solution (P50 (sample)).

[3] = 2 mM compound, 1.5 h incubation
[4] = 2 mM compound, 1.5 h incubation, 37° C.

T1 sequence (P69905 2-142 limits assumed): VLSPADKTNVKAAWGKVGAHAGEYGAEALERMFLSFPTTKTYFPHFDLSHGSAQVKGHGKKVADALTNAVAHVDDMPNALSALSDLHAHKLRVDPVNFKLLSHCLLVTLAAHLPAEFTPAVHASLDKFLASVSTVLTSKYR
T1 sequence (P68871 2-147 limits assumed): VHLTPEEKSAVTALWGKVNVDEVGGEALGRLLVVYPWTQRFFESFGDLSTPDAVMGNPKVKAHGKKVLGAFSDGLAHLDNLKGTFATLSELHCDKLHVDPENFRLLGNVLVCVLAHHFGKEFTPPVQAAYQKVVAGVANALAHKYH
T2 sequence (P69905 2-142 limits assumed): as the sequence (P69905 2-142 limits assumed) above
T2 sequence (P68871 2-147 limits assumed): as the sequence (P68871 2-147 limits assumed) above

Structure (SMILES): COc1ccc(OCc2cccnc2)c(C=O)c1 [INN-312, reference compound]
- Inhibition of sickled cells (SS cells; 0.5 mM): 15%

Structure (SMILES): COc1cc(C=O)ccc1O [vanillin, reference compound]
- inhibition at 5000 µM (SS cells): 12%

Structure (SMILES): COc1ccc(C=O)cc1OCc1cccc(CO)n1 [TD-8, 3-((6-(Hydroxymethyl)pyridine-2-yl)methoxy)-4-methoxybenzaldehyde]
- N (Hill coefficient) (Hb [1]; [3]): 1.9 ± 0.1^c†
- P50 (Hb [1]; [4]): 25.9 ± 2.5^c† mmHg
- ΔP50 (Hb [1]; [3]): −5.4 mmHg
- N (Hill coefficient) (cell-free Hb): 1.9
- P50 (cell-free Hb): 7.6 mmHg
- ΔP50 (cell-free Hb): −4.9 mmHg
- inhibition at 500 µM (SS cells; 0.5 mM): 14%
- inhibition at 1000 µM (SS cells): 20%
- inhibition at 2000 µM (SS cells): 38%

Structure (SMILES): O=Cc1ccc(CO)o1 [Compound 5HMF, 5-(hydroxymethyl) furfural, reference compound]
- N (Hill coefficient) (Hb [1]; [3]): 1.8 ± 0.1^c†
- P50 (Hb [1]; [4]): 20.2 ± 2.0^c† mmHg
- ΔP50 (Hb [1]; [3]): −11.1 mmHg
- N (Hill coefficient) (cell-free Hb): 2.0
- P50 (cell-free Hb): 8.3 mmHg
- ΔP50 (cell-free Hb): −4.2 mmHg
- P50 (Hb [2]; incubation 1 h): 29.8 ± 0.2 mmHg
- P50 (Hb [2]; incubation 2 h): 29.2 ± 0.3 mmHg
- P50 (Hb [2]; incubation 4 h): 29.2 ± 0.1 mmHg
- P50 (Hb [2]; incubation 6 h): 30.0 ± 0.1 mmHg
- P50 (Hb [2]; incubation 10 h): 31.8 ± 0.1 mmHg
- P50 (Hb [2]; incubation 12 h): 32.8 ± 0.1 mmHg
- N (Hill coefficient) (Hb [2]; incubation 1 h): 2.2 ± 0.1
- ΔP50 (Hb [2]; incubation 1 h): −2.9 mmHg
- N (Hill coefficient) (Hb [2]; incubation 2 h): 2.2 ± 0.1
- ΔP50 (Hb [2]; incubation 2 h): −3.8 mmHg
- N (Hill coefficient) (Hb [2]; incubation 4 h): 2.1 ± 0.1
- ΔP50 (Hb [2]; incubation 4 h): −3.9 mmHg
- N (Hill coefficient) (Hb [2]; incubation 6 h): 2.1 ± 0.1
- ΔP50 (Hb [2]; incubation 6 h): −4.2 mmHg
- N (Hill coefficient) (Hb [2]; incubation 10 h): 2.1 ± 0.1
- ΔP50 (Hb [2]; incubation 10 h): −3.3 mmHg
- N (Hill coefficient) (Hb [2]; incubation 12 h): 2.0 ± 0.1
- ΔP50 (Hb [2]; incubation 12 h): −3.3 mmHg
- inhibition at 500 µM (SS cells; 0.5 mM): 4%
- inhibition at 1000 µM (SS cells): 17%
- inhibition at 2000 µM (SS cells): 35%
- inhibition at 5000 µM (SS cells): 75%

Structure (SMILES): COc1ccc(C=O)c(OCc2cccc(CO)n2)c1 [TD-9, 2-((6-(Hydroxymethyl)pyridin-2-yl)methoxy)-4-methoxybenzaldehyde]
- N (Hill coefficient) (Hb [1]; [3]): 1.6 ± 0.3^c†
- P50 (Hb [1]; [4]): 21.1 ± 1.2^c† mmHg
- ΔP50 (Hb [1]; [3]): −10.2 mmHg
- N (Hill coefficient) (cell-free Hb): 1.7
- P50 (cell-free Hb): 6.8 mmHg
- ΔP50 (cell-free Hb): −5.7 mmHg
- inhibition at 500 µM (SS cells; 0.5 mM): 26%
- inhibition at 1000 µM (SS cells): 35%
- inhibition at 2000 µM (SS cells): 57%

Structure (SMILES): COc1ccc(OCc2cccc(CO)n2)c(C=O)c1 [TD-7, 2-((6-(Hydroxymethyl)pyridin-2-yl)methoxy)-5-methoxybenzaldehyde]
- N (Hill coefficient) (Hb [1]; 0.1 mM compound): 2.5^d*
- P50 (Hb [1]; 0.1 mM compound): 30.1^d* mmHg
- ΔP50 (Hb [1]; 0.1 mM compound): −0.5 mmHg
- N (Hill coefficient) (Hb [1]; 0.5 mM compound): 2.1^d*
- P50 (Hb [1]; 0.5 mM compound): 25.9^d* mmHg
- ΔP50 (Hb [1]; 0.5 mM compound): −4.7 mmHg
- N (Hill coefficient) (Hb [1]; 1 mM compound): 1.7^d*
- P50 (Hb [1]; 1 mM compound): 23.2^d* mmHg
- ΔP50 (Hb [1]; 1 mM compound): −7.4 mmHg
- N (Hill coefficient) (Hb [1]; [3]): 1.3 ± 0.3^c†
- P50 (Hb [1]; [4]): 14.3 ± 4.3^c† mmHg
- ΔP50 (Hb [1]; [3]): −17.0 mmHg
- N (Hill coefficient) (cell-free Hb): 1.8
- P50 (cell-free Hb): 7.6 mmHg
- ΔP50 (cell-free Hb): −4.9 mmHg
- P50 (Hb [2]; incubation 1 h): 28.2 ± 0.9 mmHg
- P50 (Hb [2]; incubation 2 h): 28.2 ± 0.8 mmHg
- P50 (Hb [2]; incubation 4 h): 28.8 ± 0.6 mmHg
- P50 (Hb [2]; incubation 6 h): 29.1 ± 0.6 mmHg
- P50 (Hb [2]; incubation 10 h): 30.6 ± 1.0 mmHg
- P50 (Hb [2]; incubation 12 h): 31.1 ± 0.7 mmHg
- N (Hill coefficient) (Hb [2]; incubation 1 h): 2.2 ± 0.2
- ΔP50 (Hb [2]; incubation 1 h): −4.5 mmHg
- N (Hill coefficient) (Hb [2]; incubation 2 h): 2.1 ± 0.1
- ΔP50 (Hb [2]; incubation 2 h): −4.8 mmHg
- N (Hill coefficient) (Hb [2]; incubation 4 h): 2.1 ± 0.1
- ΔP50 (Hb [2]; incubation 4 h): −4.3 mmHg
- N (Hill coefficient) (Hb [2]; incubation 6 h): 2.0 ± 0.2
- ΔP50 (Hb [2]; incubation 6 h): −5.1 mmHg
- N (Hill coefficient) (Hb [2]; incubation 10 h): 2.0 ± 0.1
- ΔP50 (Hb [2]; incubation 10 h): −4.5 mmHg
- N (Hill coefficient) (Hb [2]; incubation 12 h): 2.0 ± 0.2
- ΔP50 (Hb [2]; incubation 12 h): −5.0 mmHg
- inhibition at 500 µM (SS cells; 0.5 mM): 95%
- inhibition at 1000 µM (SS cells): 95%
- inhibition at 2000 µM (SS cells): 100%
- inhibition at 5000 µM (SS cells): 100%
